# Laboratory results: EP0347459A1, “CEPHALOSPORIN COMPOUNDS OR THEIR SALTS, PROCESS FOR THEIR PREPARATION, AND PHARMACEUTICAL COMPOSITIONS” (TEIJIN LIMITED, priority 1987, dated 1988)
# Where two headings read alike, the source gives them in different places.
# How the values were obtained:
# Type in all cases: cell-based
# P.vulgalis OX-11 = assay: In vitro antibacterial activity, agar disc dilution method; conditions: read-out: minimum growth inhibitory concentration (MIC)
# Procedure: (§1) An in vitro antibacterial activity was measured by an agar disc dilution method.
# (§2) Varied test bacteria were cultivated overnight in triptophane-soybroth. A Mueller Hinton agar containing the compound of this invention in varied concentrations was streaked with one platinum loopful of each of the bacteria (number of living cells 10^6/ml).
# P.aeruginosa PAD1 = assay: as above; conditions: Pseudomonas aeruginosa, read-out: minimum growth inhibitory concentration (MIC)
# Procedure: as §1, §2
# K.pneumoniae PCI602 = assay: as above; conditions: Klebsiella pneumoniae, read-out: minimum growth inhibitory concentration (MIC)
# Procedure: as §1, §2
# P.aeruginosa NCTC1049 = assay: as above; conditions: Pseudomonas aeruginosa, read-out: minimum growth inhibitory concentration (MIC)
# Procedure: as §1, §2
# S.aureus 209p NIHJ JC1 = assay: as above; conditions: Staphylococcus aureus, read-out: minimum growth inhibitory concentration (MIC)
# Procedure: as §1, §2
# P.morganii IFO3445 = assay: as above; conditions: Morganella morganii, read-out: minimum growth inhibitory concentration (MIC)
# Procedure: as §1, §2
# S.typhi 901 = assay: as above; conditions: Salmonella enterica, 16 h, read-out: minimum growth inhibitory concentration (MIC)
# Procedure: as §1, §2
# S. aureus Terajima = assay: as above; conditions: Staphylococcus aureus, read-out: minimum growth inhibitory concentration (MIC)
# Procedure: as §1, §2
# M.luteus ATCC9341 = assay: as above; conditions: Micrococcus luteus, read-out: minimum growth inhibitory concentration (MIC)
# Procedure: as §1, §2
# S.enteritidis G14 = assay: as above; conditions: Salmonella enterica, read-out: minimum growth inhibitory concentration (MIC)
# Procedure: as §1, §2
# E.cloacae 963 = assay: as above; conditions: read-out: minimum growth inhibitory concentration (MIC)
# Procedure: as §1, §2
# S.marcescens IAM1184 = assay: as above; conditions: Serratia marcescens, read-out: minimum growth inhibitory concentration (MIC)
# Procedure: as §1, §2
# P.aeruginosa IFO3445 = assay: as above; conditions: Pseudomonas aeruginosa, read-out: minimum growth inhibitory concentration (MIC)
# Procedure: as §1, §2
# S.pyogenes Cook = assay: as above; conditions: Streptococcus pyogenes, read-out: minimum growth inhibitory concentration (MIC)
# Procedure: as §1, §2
# P.aeruginosa 64 = assay: MIC values of 10 kinds of Pseudomonas aeruginosa; conditions: Pseudomonas aeruginosa, 64, 16 h, read-out: MIC values
# Procedure: as §1, §2
# (§3) MIC values of 10 kinds of Pseudomonas aeruginosa were measured for Compound III, Comparative Example B and CAZ.
# P.aeruginosa 0-11 = assay: MIC values of 10 kinds of Pseudomonas aeruginosa; conditions: Pseudomonas aeruginosa, 011, 16 h, read-out: MIC values
# Procedure: as §1, §2, §3
# P.aeruginosa Tid53 = assay: MIC values of 10 kinds of Pseudomonas aeruginosa; conditions: TID53, 16 h, read-out: MIC values
# Procedure: as §1, §2, §3
# P.aeruginosa N-3 = assay: MIC values of 10 kinds of Pseudomonas aeruginosa; conditions: N3, 16 h, read-out: MIC values
# Procedure: as §1, §2, §3
# P.aeruginosa 88 = assay: MIC values of 10 kinds of Pseudomonas aeruginosa; conditions: Pseudomonas aeruginosa, 88, 16 h, read-out: MIC values
# Procedure: as §1, §2, §3
# P.aeruginosa N-26 = assay: MIC values of 10 kinds of Pseudomonas aeruginosa; conditions: N26, 16 h, read-out: MIC values
# Procedure: as §1, §2, §3
# P.aeruginosa N-2 = assay: MIC values of 10 kinds of Pseudomonas aeruginosa; conditions: N2, 16 h, read-out: MIC values
# Procedure: as §1, §2, §3
# P.aeruginosa NO. 97 = assay: MIC values of 10 kinds of Pseudomonas aeruginosa; conditions: NO.97, 16 h, read-out: MIC values
# Procedure: as §1, §2, §3
# P.aeruginosa ATCC27318 = assay: MIC values of 10 kinds of Pseudomonas aeruginosa; conditions: ATCC27318, 16 h, read-out: MIC values
# Procedure: as §1, §2, §3
# P.aeruginosa ATCC27577 = assay: MIC values of 10 kinds of Pseudomonas aeruginosa; conditions: ATCC27577, 16 h, read-out: MIC values
# Procedure: as §1, §2, §3
# [1] = P.vulgalis OX-11, Mueller Hinton agar, 10^6/ml, 37°C for 16 hours
# [2] = P.aeruginosa PAD1, Mueller Hinton agar, 10^6/ml, 37°C for 16 hours
# [3] = K.pneumoniae PCI602, Mueller Hinton agar, 10^6/ml, 37°C for 16 hours
# [4] = P.aeruginosa NCTC1049, Mueller Hinton agar, 10^6/ml, 37°C for 16 hours
# [5] = S.aureus 209p NIHJ JC1, Mueller Hinton agar, 10^6/ml, 37°C for 16 hours
# [6] = P.morganii IFO3445, Mueller Hinton agar, 10^6/ml, 37°C for 16 hours
# [7] = S. aureus Terajima, Mueller Hinton agar, 10^6/ml, 37°C for 16 hours
# [8] = M.luteus ATCC9341, Mueller Hinton agar, 10^6/ml, 37°C for 16 hours
# [9] = S.enteritidis G14, Mueller Hinton agar, 10^6/ml, 37°C for 16 hours
# [10] = Enterobacter cloacae, E.cloacae 963, Mueller Hinton agar, 10^6/ml, 37°C for 16 hours
# [11] = S.marcescens IAM1184, Mueller Hinton agar, 10^6/ml, 37°C for 16 hours
# [12] = P.aeruginosa IFO3445, Mueller Hinton agar, 10^6/ml, 37°C for 16 hours
# [13] = S.pyogenes Cook, Mueller Hinton agar, 10^6/ml, 37°C for 16 hours
structure (smiles),measurement,setting,value
"CON=C(C(=O)NC1C(=O)N2C(C(=O)[O-])=C(C[n+]3ccc4cc(O)c(O)cc4c3)CSC12)c1csc(N)n1 [Comparative Compound A, (6R,7R)-7-[(Z)-2-(2-amino-l,3-thiazol-4-yl)-2-methoxyiminolacetamide-3-(6,7-dihydroxy-2-isoquinolinium)methyl-3-cephem-4-carboxylate, reference compound]",MIC,P.vulgalis OX-11; [1],0.005 µg/mL
same,MIC,P.aeruginosa PAD1; [2],50 µg/mL
same,MIC,K.pneumoniae PCI602; [3],0.005 µg/mL
same,MIC,P.aeruginosa NCTC1049; [4],0.2 µg/mL
same,MIC,S.aureus 209p NIHJ JC1; [5],0.4 µg/mL
same,MIC,P.morganii IFO3445; [6],0.1 µg/mL
same,MIC,S.typhi 901,0.005 µg/mL
same,MIC,S. aureus Terajima; [7],0.4 µg/mL
same,MIC,M.luteus ATCC9341; [8],0.4 µg/mL
same,MIC,S.enteritidis G14; [9],0.005 µg/mL
same,MIC,E.cloacae 963; [10],0.025 µg/mL
same,MIC,S.marcescens IAM1184; [11],0.005 µg/mL
same,MIC,P.aeruginosa IFO3445; [12],50 µg/mL
same,MIC,S.pyogenes Cook; [13],0.2 µg/mL
"CC(C)(O/N=C(\C(=O)N[C@@H]1C(=O)N2C(C(=O)[O-])=C(C[n+]3ccccc3)CS[C@H]12)c1csc(N)n1)C(=O)O [CAZ, (6R,7R)-7-[(Z)-2-(2-amino-1,3-thiazol-4-yl)-2-(2-carbcxypropyl-2-yloxyimino)acetamide]-3-(l-pyridinium)methyl-3-cephem-4-carboxylate, reference compound]",MIC,P.aeruginosa 64,3.1 µg/mL
same,MIC,P.aeruginosa 0-11,3.1 µg/mL
same,MIC,P.aeruginosa Tid53,6.3 µg/mL
same,MIC,P.aeruginosa N-3,1.6 µg/mL
same,MIC,P.aeruginosa 88,0.8 µg/mL
same,MIC,P.aeruginosa N-26,1.6 µg/mL
same,MIC,P.aeruginosa N-2,0.8 µg/mL
same,MIC,P.aeruginosa NO. 97,3.1 µg/mL
same,MIC,P.aeruginosa ATCC27318,1.6 µg/mL
same,MIC,P.aeruginosa ATCC27577,0.2 µg/mL
same,MIC,P.vulgalis OX-11; 16 h,0.005 µg/mL
same,MIC,"P.aeruginosa PAD1; PAD1, 16 h",0.4 µg/mL
same,MIC,"K.pneumoniae PCI602; PCI602, 16 h",0.025 µg/mL
same,MIC,"P.aeruginosa NCTC1049; NCTC1049, 16 h",0.4 µg/mL
same,MIC,S.aureus 209p NIHJ JC1; 16 h,6.3 µg/mL
same,MIC,"P.morganii IFO3445; IFO3445, 16 h",0.0125 µg/mL
same,MIC,S.typhi 901,0.1 µg/mL
same,MIC,S. aureus Terajima; 16 h,1.6 µg/mL
same,MIC,"M.luteus ATCC9341; ATCC9341, 16 h",0.4 µg/mL
same,MIC,"S.enteritidis G14; ENTERITIDIS, 16 h",0.005 µg/mL
same,MIC,"E.cloacae 963; Enterobacter cloacae, 963, 16 h",0.05 µg/mL
same,MIC,"S.marcescens IAM1184; IAM1184, 16 h",0.025 µg/mL
same,MIC,"P.aeruginosa IFO3445; IFO3445, 16 h",0.4 µg/mL
same,MIC,S.pyogenes Cook; 16 h,0.4 µg/mL
"Nc1nc(C(=NOC(C(=O)O)c2ccccc2)C(=O)NC2C(=O)N3C(C(=O)[O-])=C(C[n+]4ccc5cc(O)c(O)cc5c4)CSC23)ns1 [Compound IV, (6R,7R)-7-[(Z)-2-(5-amino-l,2,4-thiadiazol-3-yl-2-[(alpha-carboxybenzyl)oxyimino]acetamide-3-(6,7-dihydroxy-2-isoquinolinium)methyl-3-cephem-4-carboxylate]",MIC,P.vulgalis OX-11; [1],0.005 µg/mL
same,MIC,P.aeruginosa PAD1; [2],0.025 µg/mL
same,MIC,K.pneumoniae PCI602; [3],0.005 µg/mL
same,MIC,P.aeruginosa NCTC1049; [4],0.0125 µg/mL
same,MIC,S.aureus 209p NIHJ JC1; [5],3.2 µg/mL
same,MIC,P.morganii IFO3445; [6],0.005 µg/mL
same,MIC,S.typhi 901,0.005 µg/mL
same,MIC,S. aureus Terajima; [7],3.2 µg/mL
same,MIC,M.luteus ATCC9341; [8],0.8 µg/mL
same,MIC,S.enteritidis G14; [9],0.005 µg/mL
same,MIC,E.cloacae 963; [10],0.005 µg/mL
same,MIC,S.marcescens IAM1184; [11],0.005 µg/mL
same,MIC,P.aeruginosa IFO3445; [12],0.025 µg/mL
same,MIC,S.pyogenes Cook; [13],0.8 µg/mL
"CON=C(C(=O)NC1C(=O)N2C(C(=O)[O-])=C(C[n+]3ccc4cc(O)c(O)cc4c3)CSC12)c1nsc(N)n1 [Compound I, (6R,7R)-7-[(Z)-2-(5-amino-1,2,4-thiadiazol-3-yl-2-methoxyimino)acetamide]-3-(6,7-dihydroxy-2-isoquinolinium)methyl-3-cephem-4-carboxylate]",MIC,P.vulgalis OX-11; [1],0.005 µg/mL
same,MIC,P.aeruginosa PAD1; [2],12.5 µg/mL
same,MIC,K.pneumoniae PCI602; [3],0.005 µg/mL
same,MIC,P.aeruginosa NCTC1049; [4],0.2 µg/mL
same,MIC,S.aureus 209p NIHJ JC1; [5],1.6 µg/mL
same,MIC,P.morganii IFO3445; [6],0.005 µg/mL
same,MIC,S.typhi 901,0.005 µg/mL
same,MIC,S. aureus Terajima; [7],1.6 µg/mL
same,MIC,M.luteus ATCC9341; [8],0.1 µg/mL
same,MIC,S.enteritidis G14; [9],0.005 µg/mL
same,MIC,E.cloacae 963; [10],0.005 µg/mL
same,MIC,S.marcescens IAM1184; [11],0.005 µg/mL
same,MIC,P.aeruginosa IFO3445; [12],12.5 µg/mL
same,MIC,S.pyogenes Cook; [13],0.05 µg/mL
"Nc1nc(C(=NOCC(=O)O)C(=O)NC2C(=O)N3C(C(=O)[O-])=C(C[n+]4ccc5cc(O)c(O)cc5c4)CSC23)ns1 [Compound II, (6R,7R)-7-[(Z)-5-amino-1,2,4-thiadiazol-3-yl)-2-(carboxymethoxyimino)acetamidel-3-(6,7-dihydroxy-2-isoquinolinium)methyl-3-cephem-4-carboxylate]",MIC,P.vulgalis OX-11; [1],0.005 µg/mL
same,MIC,P.aeruginosa PAD1; [2],0.025 µg/mL
same,MIC,K.pneumoniae PCI602; [3],0.005 µg/mL
same,MIC,P.aeruginosa NCTC1049; [4],0.0125 µg/mL
same,MIC,S.aureus 209p NIHJ JC1; [5],12.5 µg/mL
same,MIC,P.morganii IFO3445; [6],0.005 µg/mL
same,MIC,S.typhi 901,0.005 µg/mL
same,MIC,S. aureus Terajima; [7],3.1 µg/mL
same,MIC,M.luteus ATCC9341; [8],1.6 µg/mL
same,MIC,S.enteritidis G14; [9],0.005 µg/mL
same,MIC,E.cloacae 963; [10],0.005 µg/mL
same,MIC,S.marcescens IAM1184; [11],0.005 µg/mL
same,MIC,P.aeruginosa IFO3445; [12],0.05 µg/mL
same,MIC,S.pyogenes Cook; [13],0.2 µg/mL
